{"source": "patent US10640430B2", "about": "“Fertilizer capsule comprising one or more cores and method of making same” (SAUDI BASIC INDUSTRIES CORPORATION, priority 2014, dated 2020)", "key": {"[1]": {"test": "Stability of NBTPT during oven drying of water containing extrudates", "format": "physicochemical", "conditions": "extrudates dried in oven at 120° C. overnight", "description": "Optimized formulations from the DACA were successfully extruded in the pilot scale extruder in 300 g scale. 100% bleached wheat flour was also extruded with 10-20% water which was not done in DACA."}, "[2]": {"test": "Stability of inhibitors in extrudates in urea melt (HPLC, LCMS)", "format": "physicochemical", "conditions": "urea melt conditions", "description": "Representative procedure for checking the Inhibitor stability in urea melt: The extrudate (1.0 g) was added to a vial containing urea melt (3.0 g) and it was left at the same temperature for one minute. The Vial was then cooled to room temperature and diluted with 5.0 ml of water (milli-Q water). The water was decanted and the same process was repeated twice, to remove most of the urea. Finally, water (5.0 ml) was added to the extrudate and left for 4 h before submitting the samples for HPLC analysis.\nStability of inhibitors in urea melt: Extrudates containing inhibitors were tested for their stability in urea melt using HPLC and LCMS.\nExtrudates containing NBTPT/DCD were dipped in urea melt in order to check the stability of the extrudates. Two types of studies were performed, 1) to check the deformation ability of extrudate in urea melt; and 2) to check the stability of inhibitors. Castor wax extrudates with and without inhibitors sustain the urea melt conditions under 5 seconds but inhibitors (NBTPT and DCD) were stable under these conditions. Bleached wheat flour containing extrudates sustained the urea melt temperature (133-135° C.). High melt waxes are taken in to consideration in order to mitigate the problem of possible deformation of wax extrudates when exposed to urea melt. The extrudates of high melt waxes were exposed to urea melt. […] The stability of NBTPT and DCD under urea melt temperature were analyzed and confirmed by HPLC and LCMS."}, "[3]": {"conditions": "cited from earlier work"}, "[4]": {"test": "Thermal stability of neat NBTPT and NBTPT within a core at 133-135° C. by HPLC", "format": "physicochemical", "conditions": "exposed to 133-135° C. (urea melt temperature), up to 30 min", "description": "The thermal stability of neat NBTPT and NBTPT contained within a core, as disclosed herein, can be determined by HPLC. For example, neat NBTPT or a core containing NBTPT can be exposed to 135° C. (133-135° C. is the typical temperature range of a urea melt) and can continuously be analyzed by HPLC every 5 min. Such data will determine how whether the NBTPT has better thermal stability when contained within a core, as compared to neat NBTPT.\nThe thermal stability of neat NBTPT and NBTPT within a core was determined by HPLC. The core for this example contained 58.8 wt % PoP, 39.2 wt % bleached wheat flour, and 2.0 wt % NBTPT. Both neat NBTPT and NBTPT within a core were exposed to 133-135° C., which is the typical urea melt temperature. […] The data indicates the core protects fertilizer additive materials, such as an inhibitor, from degradation during manufacturing conditions, including the expose of temperatures associated with a urea melt. The thermal stability of materials, such as an inhibitor is critical for its good performance (inhibition) in the soil. The intended function of a material, such as an inhibitor, can be lost if the material degrades when exposed to high temperatures during the manufacturing process."}, "[5]": {"conditions": "bleached wheat flour extrudate containing the inhibitor"}, "[6]": {"conditions": "castor wax extrudate containing the inhibitor"}}, "note": "Entries after “also recorded” stand apart in the source; their conditions may differ."}
{"compound": "CCCCNP(N)(N)=S", "note": "[NBTPT, N-(n-butyl) thiophosphoric triamide]", "values": [{"measurement": "Stability of NBTPT on drying", "setting": "[1]", "value": "stable"}, {"measurement": "Degradation of inhibitor in HPLC", "setting": "[2]; [5]", "value": "no degradation"}, {"measurement": "Degradation of inhibitor in HPLC", "setting": "[2]; [6]", "value": "stable; also recorded: no degradation"}, {"measurement": "Stability under acidic pH", "setting": "[3]; acidic pH", "value": "unstable"}, {"measurement": "Thermal stability (decomposition by HPLC)", "setting": "[4]; listed as Neat NBTPT", "value": "significant degradation"}, {"measurement": "Thermal stability (decomposition by HPLC)", "setting": "[4]; listed as neat NBTPT", "value": "decomposes"}]}
{"compound": "N#CN=C(N)N", "note": "[DCD, dicyandiamide]", "values": [{"measurement": "Degradation of inhibitor in HPLC", "setting": "[2]; [5]", "value": "no degradation"}, {"measurement": "Degradation of inhibitor in HPLC", "setting": "[2]; [6]", "value": "stable; also recorded: no degradation"}, {"measurement": "Thermal stability in the soil", "setting": "[3]; hot climatic region, soil", "value": "thermal instability"}]}
